Structures can show the parent of a compound that is named as a salt. Where two headings read alike, the source gives them in different places.
Assays:
Na+, K+-ATPase = Na+, K+-ATPase (Canis lupus familiaris, UniProt P50997); experiment: biochemical; design: species or system dog
anesthetized guinea-pig = experiment: Inotropic effect and lethal dose, slow intravenous infusion (over 90 minutes) in anesthetized guinea-pig; conditions: for ED80 / ED (max) / Emax: Cavia porcellus, iv, 1.5 h; for ED80: read-out: ED80 (inotropic potency, dose increasing +dP/dTmax by 80%); for ED (max): read-out: EDmax (dose inducing maximum positive inotropic effect); for Emax: read-out: Emax % increase in +dP/dTmax; for % decrease from Emax after 20 min from the end of the infusion: duration of the inotropic effect; for Maximum dose infused: maximum dose infused in the survived animals; for Dead/treated / Emax % increase in +dP/dTmax / ED80 (inotropic potency, dose increasing +dP/dTmax by 80%) / EDmax (dose inducing maximum positive inotropic effect): slow i.v. infusion over 90 minutes; for Lethal dose/ED80 (safety ratio): calculated in the died animals; for Emax % increase in +dP/dTmax: maximum increase in contractile force
fresh rat hepatocytes = experiment: Metabolism in fresh rat hepatocytes; conditions: for % of compound metabolized after 60 minutes: fresh rat hepatocytes, test item nominal concentration 45 μM
[1] = dog kidney enzyme, read-out: Na+, K+-ATPase Inhibition IC50
[2] = read-out: Na+, K+-ATPase Inhibition IC50

## C[C@]12CC[C@H]3[C@@H](CC[C@@]4(O)CC(=NOCCN)CC[C@]34C)[C@@H]1CCC2=O (mixture of isomers) [I-ad, (E,Z) 3-(2-Aminoethoxyimino)-5α-hydroxyandrostan-17-one fumarate]
Na+, K+-ATPase; Na+, K+-ATPase Inhibition IC50
  IC50: 540 nM
Anesthetized guinea-pig
  ED80: 5.14 µmol/kg
  ED (max): 22.5 µmol/kg
  Emax: 202%
  % decrease from Emax after 20 min from the end of the infusion: 100%
  Maximum dose infused: 50.1 µmol/kg
  Dead/treated: 0/3

## CC12CCC3C(CC(CCO)C4CC(=NOCCN)CCC43C)C1CCC2=O (mixture of isomers) [I-am, (E,Z) 3-(2-Aminoethoxyimino)-6α-(2-hydroxyethyl)androstan-17-one hydrochloride]
Na+, K+-ATPase; [1]
  IC50: 320 nM
Anesthetized guinea-pig
  ED80: 2.5 µmol/kg
  ED (max): 17.2 µmol/kg
  Emax: 238%
  Lethal dose/ED80 (safety ratio): 22.7
  % decrease from Emax after 20 min from the end of the infusion: 17%
  Maximum dose infused: 50.5 µmol/kg
  Dead/treated: 2/3

## CON=C1CC2C3CCC(=O)C3(C)CCC2C2(C)CCC(=NOCCN)CC12 (mixture of isomers) [I-aw, (E,Z)-3-(2-Aminoethoxyimino)-6-(E)-methoxyiminoandrostan-17-one hydrochloride]
Na+, K+-ATPase; [1]
  IC50: 17 nM
Anesthetized guinea-pig
  ED80: 2.35 µmol/kg
  ED (max): 5.77 µmol/kg
  Emax: 183%
  % decrease from Emax after 20 min from the end of the infusion: 100%
  Maximum dose infused: 12.7 µmol/kg
  Dead/treated: 0/5

## C#C[C@H]1C[C@@H]2[C@H](CC[C@]3(C)C(=O)CC[C@@H]23)[C@@]2(C)CCC(=NOCCN)C[C@H]12 (mixture of isomers) [I-bd, (E,Z) 3-(2-Aminoethoxyimino)-6α-ethynylandrostan-17-one hydrochloride]
Na+, K+-ATPase; Na+, K+-ATPase Inhibition IC50
  IC50: 200 nM
Anesthetized guinea-pig
  ED80: 4.59 µmol/kg
  ED (max): 9.89 µmol/kg
  Emax: 163%
  % decrease from Emax after 20 min from the end of the infusion: 16%
  Maximum dose infused: 12.8 µmol/kg
  Dead/treated: 0/3

## CO/N=C1\C[C@H]2[C@@H]3CCC(=O)[C@@]3(C)CC[C@@H]2[C@@]2(C)CCC(=NOCCN)C[C@]12O (mixture of isomers) [I-bp, (E,Z)-3-(2-Aminoethoxyimino)-5α-hydroxy-6-(E)-methoxyiminoandrostane-17-one fumarate]
Na+, K+-ATPase; Na+, K+-ATPase Inhibition IC50
  IC50: 40 nM
Fresh rat hepatocytes
  % of compound metabolized after 60 minutes: 32%

## C=C1C[C@H]2[C@@H]3CCC(=O)[C@@]3(C)CC[C@@H]2[C@@]2(C)CCC(=NOCCN)C[C@]12O (mixture of isomers) [I-bq, (E,Z) 3-(2-Aminoethoxyimino)-5α-hydroxy-6-methylenandrostane-17-one hydrochloride]
Na+, K+-ATPase; Na+, K+-ATPase Inhibition IC50
  IC50: 99 nM
Anesthetized guinea-pig
  ED80: 5.87 µmol/kg
  ED (max): 15.7 µmol/kg
  Emax: 173%
  % decrease from Emax after 20 min from the end of the infusion: 10%
  Maximum dose infused: 25.3 µmol/kg
  Dead/treated: 0/3

## CC12CCC3C(C(=O)CC4CC(=NOCCN)CCC43C)C1CCC2=O (mixture of isomers) [I-br, (E,Z) 3-(2-Aminoethoxyimino)androstane-7,17-dione fumarate]
Na+, K+-ATPase; Na+, K+-ATPase Inhibition IC50
  IC50: 210 nM
Anesthetized guinea-pig
  ED80: 1.62 µmol/kg
  ED (max): 13.5 µmol/kg
  Emax: 264%
  Lethal dose/ED80 (safety ratio): 32.4
  % decrease from Emax after 20 min from the end of the infusion: 100%
  Maximum dose infused: 50.4 µmol/kg
  Dead/treated: 2/5

## CC12CCC3C(C(=NO)CC4CC(=NOCCN)CCC43C)C1CCC2=O (mixture of isomers) [I-bs, (E,Z)-3-(2-Aminoethoxyimino)-7-(E)-hydroxyiminoandrostane-17-one fumarate]
Fresh rat hepatocytes
  % of compound metabolized after 60 minutes: 15%

## CNCCCON=C1CC[C@@]2(C)[C@H](C1)[C@@H](CO)C[C@@H]1[C@@H]2CC[C@]2(C)C(=O)CC[C@@H]12 (mixture of isomers) [I-cl, (E,Z) 3-(3-N-Methylaminopropoxyimino)-6α-hydroxymethylandrostan-17-one hydrochloride]
Na+, K+-ATPase; [1]
  IC50: 690 nM
Anesthetized guinea-pig
  ED80: 1.54 µmol/kg
  ED (max): 8.95 µmol/kg
  Emax: 263%
  Lethal dose/ED80 (safety ratio): 27.6
  Maximum dose infused: 42.5 µmol/kg
  Dead/treated: 2/2

## CNCCCON=C1CCC2(C)C(C1)C(NC=O)CC1C3CCC(=O)C3(C)CCC12 (mixture of isomers) [I-co, (E,Z) 3-(3-N-Methylaminopropoxyimino)-6α-formamidoandrostan-17-one hydrochloride]
Na+, K+-ATPase; [1]
  IC50: 1100 nM
Anesthetized guinea-pig
  ED80: 0.93 µmol/kg
  ED (max): 2.79 µmol/kg
  Emax: 177%
  Lethal dose/ED80 (safety ratio): 47.4
  Maximum dose infused: 44.1 µmol/kg
  Dead/treated: 2/2

## CC12CCC3C(C(O)C(CO)C4CC(=NOCCN)CCC43C)C1CCC2=O (mixture of isomers) [I-ej, (E,Z) 3-(2-Aminoethoxyimino)-6α-hydroxymethyl-7α-hydroxyandrostane-17-one hydrochloride]
Na+, K+-ATPase; [1]
  IC50: 22 nM
Fresh rat hepatocytes
  % of compound metabolized after 60 minutes: 5%
Anesthetized guinea-pig
  ED80: 0.34 µmol/kg
  ED (max): 7.55 µmol/kg
  Emax: 258%
  Lethal dose/ED80 (safety ratio): 50
  Maximum dose infused: 25.0 µmol/kg
  Dead/treated: 3/3

## C[C@]12CCC(=NOCCN)CC1C(=O)C[C@@H]1[C@@H]2CC[C@]2(C)C(=O)CC[C@@H]12.Cl (mixture of isomers) [compd 22b, (EZ) 3-(2-aminoethoxyimino)androstane-6,17-dione hydrochloride, reference compound]
Fresh rat hepatocytes
  % of compound metabolized after 60 minutes: 95%
Fresh rat hepatocytes; within 60 minutes
  metabolism in fresh rat hepatocytes (in words): almost completely metabolized
Anesthetized guinea-pig
  ED80: 1.82 µmol/kg
  ED (max): 5.74 µmol/kg
  Emax: 182%
  Lethal dose/ED80 (safety ratio): 22.6
  % decrease from Emax after 20 min from the end of the infusion: 100%
  Maximum dose infused: 32.1 µmol/kg
  Dead/treated: 7/8

## CC12CCC3C(CC(CO)C4CC(=NOCCN)CCC43C)C1CCC2=O (single isomer, unassigned) [I-ao, (E,Z) 3-(2-Aminoethoxyimino)-6α-hydroxymethylandrostan-17-one hydrochloride]
Na+, K+-ATPase; [1]
  IC50: 180 nM
Anesthetized guinea-pig
  ED80: 1.8 µmol/kg
  ED (max): 7.37 µmol/kg
  Emax: 166%
  % decrease from Emax after 20 min from the end of the infusion: 100%
  Maximum dose infused: 12.6 µmol/kg
  Dead/treated: 0/3

## CC1CC2C3CCC(=O)C3(C)CCC2C2(C)CCC(=NOCCN)CC12 (single isomer, unassigned) [I-ba, (E,Z) 3-(2-Aminoethoxyimino)-6α-methylandrostan-17-one hydrochloride]
Na+, K+-ATPase; Na+, K+-ATPase Inhibition IC50
  IC50: 300 nM
Anesthetized guinea-pig
  ED80: 3.09 µmol/kg
  ED (max): 5.78 µmol/kg
  Emax: 203%
  % decrease from Emax after 20 min from the end of the infusion: 100%
  Maximum dose infused: 6.3 µmol/kg
  Dead/treated: 0/3

## C[C@]12CC[C@H]3[C@@H](C/C(=N\O)[C@@]4(O)CC(=NOCCN)CC[C@]34C)[C@@H]1CCC2=O.O=C(O)/C=C/C(=O)O [I-bo, (E,Z)-3-(2-Aminoethoxyimino)-5α-hydroxy-6-(E)-hydroxyiminoandrostane-17-one fumarate]
Na+, K+-ATPase; [2]
  IC50: 79 nM
Anesthetized guinea-pig
  % decrease from Emax after 20 min from the end of the infusion: 82%
  Maximum dose infused: 12.5 µmol/kg
  Emax % increase in +dP/dTmax: 214%
  Dead/treated: 0/3
  ED80 (inotropic potency, dose increasing +dP/dTmax by 80%): 1.30 µmol/kg
  EDmax (dose inducing maximum positive inotropic effect): 4.86 µmol/kg

## CNCCCON=C1CC[C@@]2(C)C(C1)C(=NOC)C[C@@H]1[C@@H]2CC[C@]2(C)C(=O)CC[C@@H]12.Cl (stereo partly shown) [I-ci, (E,Z) 3-(3-N-Methylaminopropoxyimino)-6-(E)-methoxyiminoandrostan-17-one hydrochloride]
Na+, K+-ATPase; [2]
  IC50: 330 nM
Fresh rat hepatocytes
  % of compound metabolized after 60 minutes: 41%

## C[C@]12CC[C@@H](/C=C\CCCN)CC1/C(=N/O)C[C@@H]1[C@@H]2CC[C@]2(C)C(=O)CC[C@@H]12.O=C(O)/C=C/C(=O)O (stereo partly drawn) [I-dg, 3α-(5-Aminopent-1-(Z)-enyl)-6-(E)-hydroxyiminoandrostan-17-one fumarate]
Na+, K+-ATPase; [2]
  IC50: 390 nM
Anesthetized guinea-pig
  % decrease from Emax after 20 min from the end of the infusion: 29%
  Maximum dose infused: 12.9 µmol/kg
  Emax % increase in +dP/dTmax: 105%
  Dead/treated: 0/3
  ED80 (inotropic potency, dose increasing +dP/dTmax by 80%): 8.62 µmol/kg
  EDmax (dose inducing maximum positive inotropic effect): 11.4 µmol/kg

## C[C@]12CC[C@H]3[C@@H](CC[C@@]4(O)C[C@H](/C=C\CCCN)CC[C@]34C)[C@@H]1CCC2=O [I-dk, 3α-(5-Aminopent-1-(Z)-enyl)-5α-hydroxyandrostane-17-one fumarate]
Na+, K+-ATPase; [1]
  IC50: 690 nM
Fresh rat hepatocytes
  % of compound metabolized after 60 minutes: 12%

## C[C@]12CC[C@H](OC(=O)CCN)CC1/C(=N/O)C[C@@H]1[C@@H]2CC[C@]2(C)C(=O)CC[C@@H]12.Cl (stereo partly drawn) [I-dm, 3β-(3-Aminopropionyloxy)-6-(E)-hydroxyiminoandrostan-17-one hydrochloride]
Fresh rat hepatocytes
  % of compound metabolized after 60 minutes: 71%

## C=C1C[C@@H]2[C@H](CC[C@]3(C)C(=O)CC[C@@H]23)[C@@]2(C)CC[C@@H]([S@@+]([O-])CCCN)CC12 (stereo partly drawn) [I-eb, 3α-[(S)-3-Aminopropylsulfinyl]-6-methyleneandrostane-17-one fumarate]
Na+, K+-ATPase; [2]
  IC50: 7200 nM

## C=C1C[C@@H]2[C@H](CC[C@]3(C)C(=O)CC[C@@H]23)[C@@]2(C)CC[C@@H]([S@+]([O-])CCCN)CC12 (stereo partly drawn) [I-ec, 3α-[(R)-3-Aminopropylsulfinyl]-6-methyleneandrostane-17-one fumarate]
Na+, K+-ATPase; [2]
  IC50: 80000 nM

## CNCCCON=C1CC[C@@]2(C)C(C1)[C@@H](CO)C(=O)[C@@H]1[C@@H]2CC[C@]2(C)C(=O)CC[C@@H]12 (stereo partly drawn) [I-ei, (E,Z) 3-(3-N-Methylaminopropoxyimino)-6α-hydroxymethylandrostane-7,17-dione fumarate]
Na+, K+-ATPase; [2]
  IC50: 44 nM

## CC(C)(CN)ON=C1CC[C@@]2(C)C(C1)/C(=N/O)C[C@@H]1[C@@H]2CC[C@]2(C)C(=O)CC[C@@H]12 (stereo partly shown) [I-eo, (E,Z) 3-(3-Amino-2-methyl-2-propoxyimino)-6-(E)-hydroxyiminoandrostane-17-one hydrochloride]
Na+, K+-ATPase; [2]
  IC50: 20 nM

Reference: patent US8609644B2, “Amino derivatives of androstanes and androstenes as medicaments for cardiovascular disorders” (priority 2006, dated 2013)
